PMC11477134 (International Journal of Molecular Sciences, 2024)
Read-outs that look alike come from different tables or passages of the source.

What was measured:
[1] = design: method as in PMID 29925102; settings: use of honokiol or herbal formulations containing it; cited from earlier work
hQC = target: T1, hQC (Homo sapiens, UniProt Q16769); test: hQC inhibitory activity (fluorometric assay) and enzyme kinetics; format: biochemical
T1 construct: purchased R&D Systems (Minneapolis, MN, USA)
Protocol: The inhibitory activity of hQC was evaluated using H-Gln-AMC hydrobromide (400 μM) as the substrate in a fluorometric assay. The buffer consisted of 25 mM HEPES (pH 7.0; adjusted with HCl). The hQC (10 μg/mL) and its auxiliary enzyme pGAPase (50 units) were pre-diluted 1:250 in HEPES. A typical reaction mixture consisted of the substrate, test compounds, and pGAPase. After incubation in black 96-well plates for 10 min at 37 °C, the reaction was initiated by adding hQC solution. The fluorescence intensity of the samples was measured at excitation/emission wavelengths of 380/460 nm, which correlated with the amount of AMC, the end product of the enzymatic process.
(§1) Dixon plots were obtained in the presence of different concentrations of substrates for AD-related target enzymes. Michaelis–Menten and Lineweaver–Burk plots were constructed in the absence or presence of various concentrations of honokiol. The Enzyme Kinetic™ module of SigmaPlot™ version 12.3 (Systat Software, Inc., San Jose, CA, USA) was used to calculate kinetic parameters, such as the Ki, Vmax, and Km.

hGSK-3β = target: T2, hGSK-3β (Homo sapiens, UniProt P49841); test: hGSK-3β activity (ADP-Glo/Kinase-Glo assay) and enzyme kinetics; format: biochemical
T2 construct: purchased Promega (Madison, WI, USA)
T2 sequence (P49841 whole entry): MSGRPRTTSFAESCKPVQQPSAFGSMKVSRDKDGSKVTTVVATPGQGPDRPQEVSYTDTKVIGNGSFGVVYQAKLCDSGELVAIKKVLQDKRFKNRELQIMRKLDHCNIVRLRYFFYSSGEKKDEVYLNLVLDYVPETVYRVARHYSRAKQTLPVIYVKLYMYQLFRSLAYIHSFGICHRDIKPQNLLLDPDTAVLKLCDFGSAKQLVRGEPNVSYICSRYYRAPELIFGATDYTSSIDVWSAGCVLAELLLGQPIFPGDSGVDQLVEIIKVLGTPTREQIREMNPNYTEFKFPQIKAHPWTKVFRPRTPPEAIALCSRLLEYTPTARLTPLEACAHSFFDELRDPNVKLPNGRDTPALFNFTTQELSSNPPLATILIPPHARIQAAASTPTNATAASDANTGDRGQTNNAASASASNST
Protocol: Inhibition of hGSK-3β activity was evaluated using the Kinase-Glo assay. To initiate the reaction, test compound and hGSK-3β (20 ng) were added to each well of a 384-well black plate, followed by the addition of 20 μL of assay buffer containing GSM (hGSK-3β substrate peptide, 25 μM) and ATP (final concentration, 1 μM). […] The reaction mixture was then incubated at 37 °C for 30 min, followed by the addition of the ADP-GloTM reagent (20 μL) to terminate the enzymatic reaction and deplete the remaining ATP. The kinase detection reagent was added to the well plate and glow-type luminescence was recorded using a Synergy H1 microplate reader.
as §1

AChE = AChE (Homo sapiens, UniProt P22303); settings: Dixon and Lineweaver–Burk plots
AChE, sequence (P22303 32-614): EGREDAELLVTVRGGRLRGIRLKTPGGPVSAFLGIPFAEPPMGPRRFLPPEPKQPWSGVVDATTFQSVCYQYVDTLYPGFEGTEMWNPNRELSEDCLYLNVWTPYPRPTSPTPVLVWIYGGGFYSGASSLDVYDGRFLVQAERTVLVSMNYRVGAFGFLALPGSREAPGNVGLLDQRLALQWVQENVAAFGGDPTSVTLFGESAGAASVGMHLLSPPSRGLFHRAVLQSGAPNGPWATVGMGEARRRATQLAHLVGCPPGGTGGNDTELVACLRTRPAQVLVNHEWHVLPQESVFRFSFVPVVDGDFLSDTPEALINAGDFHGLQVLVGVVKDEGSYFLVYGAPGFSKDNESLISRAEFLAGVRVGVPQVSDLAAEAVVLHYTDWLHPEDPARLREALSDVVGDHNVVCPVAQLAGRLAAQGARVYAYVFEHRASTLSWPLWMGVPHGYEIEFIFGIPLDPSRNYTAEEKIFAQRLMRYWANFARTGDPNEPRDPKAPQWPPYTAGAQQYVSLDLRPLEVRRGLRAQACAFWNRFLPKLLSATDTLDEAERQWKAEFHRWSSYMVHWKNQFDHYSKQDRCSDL
Protocol: The AChE inhibitory activity was measured spectrophotometrically using the modified Ellman method. First, AChE (0.8 U/mL) was added to a mixture containing sodium phosphate buffer (0.1 M; pH 8.0), DTNB (5 mM), and a test sample, followed by incubation at 37 °C for 15 min in 96-well microplates. Next, ACTI (500 µM; substrate for AChE) was added to the mixture to activate the reaction.
(§2) Dixon plots were obtained in the presence of different concentrations of substrates for AD-related target enzymes. Michaelis–Menten and Lineweaver–Burk plots were constructed in the absence or presence of various concentrations of honokiol.

hBACE1 = target: T3, hBACE1 (Homo sapiens, UniProt P56817); test: hBACE1 inhibitory activity (FRET assay) and enzyme kinetics; format: biochemical
T3 construct: purchased Invitrogen (Pan Vera, Madison, WI, USA)
T3 sequence (P56817 46-501): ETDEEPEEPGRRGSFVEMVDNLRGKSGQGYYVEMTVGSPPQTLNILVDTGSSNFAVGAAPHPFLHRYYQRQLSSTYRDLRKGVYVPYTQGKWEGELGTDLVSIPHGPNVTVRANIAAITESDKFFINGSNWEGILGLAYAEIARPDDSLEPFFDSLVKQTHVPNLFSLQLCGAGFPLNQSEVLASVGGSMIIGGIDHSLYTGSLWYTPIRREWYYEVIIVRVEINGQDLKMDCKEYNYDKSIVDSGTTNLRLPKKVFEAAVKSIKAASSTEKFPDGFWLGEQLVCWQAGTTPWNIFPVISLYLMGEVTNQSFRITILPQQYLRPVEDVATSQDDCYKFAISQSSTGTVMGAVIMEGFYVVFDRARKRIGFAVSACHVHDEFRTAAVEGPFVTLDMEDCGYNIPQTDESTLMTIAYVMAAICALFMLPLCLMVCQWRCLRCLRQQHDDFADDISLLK
Protocol: The FRET-based assay was used to evaluate the anti-hBACE1 activity and was performed according to the manufacturer’s instructions. […] The percentage BACE1 inhibitory activity was calculated using the following formula:Inhibition (%) = [1 − (S − S0)/(C − C0)] × 100(1) where C is the control fluorescence without the sample after 60 min of incubation, C0 is the control fluorescence at time 0, S is the test sample fluorescence after 60 min of incubation, and S0 is the test sample fluorescence at time 0.
as §2

Aβ1-42 = Aβ1-42 (Homo sapiens, UniProt P05067); test: Anti-Aβ1-42 aggregation (preliminary study); format: biochemical; settings: compared with honokiol
Aβ1-42, sequence (P05067 672-713 limits assumed): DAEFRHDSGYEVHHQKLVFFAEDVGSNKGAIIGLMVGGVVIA

[2] = Dixon and Lineweaver–Burk plots
[3] = mean ± S.D. of triplicate experiments, read-out: IC50 hQC
[4] = mean ± S.D. of triplicate experiments, read-out: IC50 hGSK-3β

T1 sequence (Q16769 29-361): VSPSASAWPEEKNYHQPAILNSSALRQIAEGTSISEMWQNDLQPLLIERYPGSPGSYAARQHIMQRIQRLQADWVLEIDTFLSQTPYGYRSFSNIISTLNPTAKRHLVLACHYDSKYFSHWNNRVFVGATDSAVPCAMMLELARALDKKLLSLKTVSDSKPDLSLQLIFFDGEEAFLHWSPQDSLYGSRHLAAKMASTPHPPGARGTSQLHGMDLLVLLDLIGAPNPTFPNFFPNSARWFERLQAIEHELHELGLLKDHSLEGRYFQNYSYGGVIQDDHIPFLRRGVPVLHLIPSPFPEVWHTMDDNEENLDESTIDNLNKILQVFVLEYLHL

C=CCc1ccc(O)c(-c2ccc(O)c(CC=C)c2)c1 [Honokiol (39), 3,5′-diallyl-4,2′-dihydroxybiphenyl]
side effects in humans [1]: no side effects have been reported in humans
IC50 (hQC): 90.7 ± 1.07 µM
Ki (hQC): 49.4 µM
Inhibition Mode hQC (hQC; [2]): Competitive
IC50 (hGSK-3β): 6.7 ± 0.03 µM
Ki (hGSK-3β): 9.8 µM
Inhibition Mode hGSK-3β (hGSK-3β; [2]): Non-competitive
Inhibition Mode AChE (AChE): Non-competitive
IC50 (hBACE1): 20.6 ± 0.8 µM
Ki (hBACE1): 27.3 µM
Inhibition Mode hBACE1 (hBACE1; [2]): Non-competitive

C=CCc1ccc(O)c(-c2cc(CC=C)ccc2O)c1 [Magnolol (51), 5,5′-diallyl-2,2′-dihydroxybiphenyl]
IC50 (hQC; [3]): > 100 µM
IC50 (hGSK-3β; [4]): > 100 µM
anti-Aβ1-42 aggregation effects (Aβ1-42): lower anti-Aβ1-42 aggregation effects than that of honokiol
IC50 (hBACE1; mean ± S.D. of triplicate experiments, read-out: IC50 hBACE1): > 100 µM

Oc1ccc(/C=C/c2cc(O)cc(O)c2)cc1 [resveratrol, reference compound]
IC50 (hQC; [3]): 30.9 µM

C[C@@H]1O[C@@H](OC[C@H]2O[C@@H](Oc3c(-c4ccc(O)c(O)c4)oc4cc(O)cc(O)c4c3=O)[C@H](O)[C@@H](O)[C@@H]2O)[C@H](O)[C@H](O)[C@H]1O [rutin, reference compound]
IC50 (hGSK-3β; [4]): 10.8 µM
